Experimental data: patent publication US20080063628A1, “METHODS TO PROMOTE CELL DIFFERENTIATION” (priority 2006, published 2008)

Tests used:
[1] = system: PHA treated PBMCs containing activated T-lymphocytes; assay: Trichostatin A treatment of PBMCs, gene expression by RT-PCR (Example 20); type: cell-based, human; conditions: 5 μM
Text: (§1) Human peripheral blood mononuclear cells (PBMCs) were isolated from whole blood using Histopaque (Sigma) gradients and standard density centrifugation. PBMCs are a heterogeneous mixture of lymphoid cells including quiescent T-lymphocytes. Cells were washed thoroughly, counted, and resuspended at 1-2×10^6 cells per ml in culture medium containing RPMI-1640 and 10% FCS. Phytohemagglutinin (PHA; Sigma) is a mitogenic lectin that specifically induces T-lymphocyte activation and proliferation. PHA was added to the cell suspension at a final concentration of 10 μg/ml, and PBMCs were cultured for 3 days at 37° C. with 5% CO2. […] At the end of culture, PBMCs were pooled to harvest, washed thoroughly, and resuspended in fresh culture medium with 5 μM trichostatin A diluted in DMSO. A control culture of PHA-treated PBMCs received an equivalent dilution of DMSO alone. Cells were returned to culture for an additional 24 or 48 hours. Alternatively, resting PBMCs were isolated in a similar manner and cultured for 24 or 48 hours total incubation time with either 5 μM trichostatin A or DMSO alone. At the conclusion of culture, cells were harvested and washed with PBS prior to preparation of RNA in RLT lysis buffer with β-mercaptoethanol (Qiagen). RNA was purified using the RNeasy Mini Kit (Qiagen); RNA quantity and quality were determined using a spectrophotometer. CDNA was made using the iScript CDNA synthesis kit (BioRad). Samples of 20 ng CDNA were used in each RT-PCR reaction, performed on the Applied Biosystems 7500. Results were normalized against GAPDH expression levels with data analysis performed using the accompanying software.

[2] = system: resting peripheral blood mononuclear cells (PBMCs); assay: as above; type: cell-based, human; conditions: 5 μM
Text: as §1

[3] = 24 hrs, after 3 days PHA 10 μg/ml
[4] = 48 hours, after 3 days PHA 10 μg/ml

Structure (SMILES): CC(/C=C/C(=O)NO)=C\[C@@H](C)C(=O)c1ccc(N(C)C)cc1 [trichostatin A]
- HNF-3 beta expression ([1]; 24 or 48 hours): negative
- Sox17 expression ([1]; 24 or 48 hours): negative
- glucagon expression ([1]; 24 or 48 hours): negative
- insulin expression ([1]; 24 or 48 hours): negative
- somatostatin expression ([1]; 24 or 48 hours): negative
- GAPDH gene expression [1, 3]: +++ (detectable at less than 35 cycles by RT-PCR with SE less than 0.9)
- GATA4 gene expression [1, 3]: +++ (detectable at less than 35 cycles by RT-PCR with SE less than 0.9)
- Gata1 gene expression [1, 3]: nd (not detectable at >40 cycles by RT-PCR)
- Pdx-1 gene expression [1, 3]: + (detectable at greater than 35–40 cycles by RT-PCR)
- GATA4 gene expression [1, 4]: +++ (detectable at less than 35 cycles by RT-PCR with SE less than 0.9)
- Gata1 gene expression [1, 4]: nd (not detectable at >40 cycles by RT-PCR)
- Pdx-1 gene expression [1, 4]: + (detectable at greater than 35–40 cycles by RT-PCR)
- HNF-3 beta expression ([2]; 24 or 48 hours): negative
- Sox17 expression ([2]; 24 or 48 hours): negative
- glucagon expression ([2]; 24 or 48 hours): negative
- insulin expression ([2]; 24 or 48 hours): negative
- somatostatin expression ([2]; 24 or 48 hours): negative
- GAPDH gene expression ([2]; 24 hrs): +++ (detectable at less than 35 cycles by RT-PCR with SE less than 0.9)
- GATA4 gene expression ([2]; 24 hrs): + (detectable at greater than 35–40 cycles by RT-PCR)
- Gata1 gene expression ([2]; 24 hrs): nd (not detectable at >40 cycles by RT-PCR)
- Pdx-1 gene expression ([2]; 24 hrs): nd (not detectable at >40 cycles by RT-PCR)
- GAPDH gene expression ([2]; 48 hours): +++ (detectable at less than 35 cycles by RT-PCR with SE less than 0.9)
- GATA4 gene expression ([2]; 48 hours): + (detectable at greater than 35–40 cycles by RT-PCR)
- Gata1 gene expression ([2]; 48 hours): nd (not detectable at >40 cycles by RT-PCR)
- Pdx-1 gene expression ([2]; 48 hours): nd (not detectable at >40 cycles by RT-PCR)
